Where two headings read alike, the source gives them in different places.
Columns and labels:
[1] = Thermal half-life of the metastable Z isomer; type: physicochemical; conditions: Tris buffer + 0.5% DMSO
Procedure: Figure S36. Photostationary state of 9 after irradiation with 528 nm (switching to the E -isomer).
1.4.3. Thermal Half-lives
For the determination of the thermal stability of the metastable Z isomer a 50 µM solution in Tris buffer
+ 0.5% DMSO was irradiated with 365 nm. For 4 weeks the absorption at 335 nm was measured every
ExpDec1 Fit of Sheet1 B 0,35 ExpDec1 Fit of Sheet1 B
Modell ExpDec1 Modell ExpDec1
Gle i c hung y = A 1 *e xp (-x/t1 ) + y0 Gle i c hung y = A 1 *e xp (-x/t1 ) + y0
Ze i c hne n B Ze i c hne n B
(also on this page, place not known: E-isomer). 0,45absorption 335 nm Gleichung A1*exp(-x/t1) Zeichnen (COD) 0,50absorption 335 nm Gleichung A1*exp(-x/t1) Zeichnen (COD)) […]

[2] = Photostationary states by analytical HPLC at isosbestic points; type: physicochemical; conditions: single experiment; for PSS (E → Z): irradiation with 365 nm; for PSS (Z → E): irradiation with 528 nm
Procedure: (§1) Wavelength λ [nm] Cycle Number
Figure S18. UV/Vis spectr um and cycle performance of 7.
1.4.2. Photostationary States
Photostationary states (PSS) were measured on analytical HPLC. To determine the photostationary state of the photoswitches the samples (0.2 mM in Tris buffer + 2% DMSO) were irradiated first with 3 65 nm to get the Z -isomer (Peak 1). Afterwards, the sample was irradiated with 528 nm to get back to the E-isomer (Peak 2). The samples were measured at the isosbestic points.
Figure S19. Photostationary state of 1 after irradiation with 365 nm (switching to the Z - isomer).
Figure S20. Photostationary state of 1 after irradiation with 528 nm (switching to the E -isomer). […]

[3] = UV/Vis spectra of E- and Z-isomers in Tris buffer; type: physicochemical; conditions: for λmax (E): E-isomer, Tris buffer 50 mM Tris, 1 mM EDTA, 1 mM MgCl2; for λmax (Z): Z-isomer, Tris buffer
Procedure: 1.4. Photophysical Characterization
1.4.1. UV/Vis Spectra and Cycle Performance
UV/Vis absorption spectra were measured to characterize the photophysical properties of the synthesized pho to switches. The pho to switches were diluted with TRIS buffer (50 m M Tris, 1 m M EDTA, 1 mM MgCl2, pH 7.4) to end up with a concentration of 10 µM + 0.5% DMSO. The spectra were measured in a quartz glass cuvette after different illuminations with LED modules. First, the solution was illuminated with 365 nm light for 10 s to switch to the Z -isomer. After measuring the UV/Vis spectrum of the Z-isomer (purple curve), the solution was illuminated with 528 nm light for 120 s and the spectrum for the E -isomer (black curve) was measured. This cycle was repeated ten times to show the stability and repeatability of switching the compound. The isosbestic points could be determined from an overlay of the UV/Vis spectra of both isomers.
as §1
Figure S10. UV/Vis spectr um and cycle performance of 1.
Figure S11. UV/Vis spectr um and cycle performance of 2.
(also on this page, place not known: photoswitches. photoswitches mM mM MgCl 2, 0.5 % E-isomer coul d spectrum spectrum 600 0,15Absorbance 0 Absorbance 340 nm 600 0,18Absorbance 0 Absorbance 335 nm)

[4] = target: T1, human β2AR (Homo sapiens, UniProt P07550); type: cell-based
T1 construct: host or cells: HEK-293T
T1 sequence (P07550 whole entry): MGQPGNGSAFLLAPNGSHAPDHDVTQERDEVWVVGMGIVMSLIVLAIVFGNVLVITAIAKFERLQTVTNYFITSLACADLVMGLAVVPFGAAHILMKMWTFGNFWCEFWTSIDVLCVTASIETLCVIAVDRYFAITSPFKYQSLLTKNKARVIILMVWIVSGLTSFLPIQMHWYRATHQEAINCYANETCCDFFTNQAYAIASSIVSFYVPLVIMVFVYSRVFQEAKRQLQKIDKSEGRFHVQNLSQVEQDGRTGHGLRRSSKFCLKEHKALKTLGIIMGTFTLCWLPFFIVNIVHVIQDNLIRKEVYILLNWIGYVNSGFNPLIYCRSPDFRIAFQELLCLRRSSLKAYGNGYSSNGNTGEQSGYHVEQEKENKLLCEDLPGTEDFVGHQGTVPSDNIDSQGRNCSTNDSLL

[5] = E-isomer, β2AR wild type, mean ± S.E.M.
[6] = HEK-293T, E-isomer, β2AR wild type, relative to maximum effect of norepinephrine, read-out: Emax
[7] = HEK-293T, Z-isomer, β2AR wild type, relative to maximum effect of norepinephrine, read-out: Emax
[8] = Z-isomer, β2AR wild type, mean ± S.E.M.
[9] = HEK-293T, reference agonists, β2AR wild-type, relative to norepinephrine, read-out: Emax

Which results are given for `Cc1nn(CCSSCCN)c(C)c1N=Nc1ccc(CCNCC(O)c2ccc(O)c3c2OCC(=O)N3)cc1` (mixture of isomers) [Compound 3]?
t1/2 [1]: 15.2 days; PSS (E → Z) [2]: 95%; PSS (Z → E) [2]: 89%; λmax (E) [3]: 337 nm; λmax (Z) [3]: 434 nm; EC50 [4, 5]: 7.2 ± 3 nM; Emax [4, 6]: 85 ± 2%; Emax [4, 7]: 78 ± 4%; EC50 [4, 8]: 17 ± 6.3 nM

For `CNC[C@H](O)c1ccc(O)c(O)c1` [epinephrine, reference compound], which Emax [4, 9] is on record?
The Emax was 103%.

With `NC[C@H](O)c1ccc(O)c(O)c1` [norepinephrine, reference compound] as the compound, how does the Emax [4, 9] read?
The Emax was 100%.

Which t1/2 [1] does the source give for `Cc1nn(CCN2C(=O)C=CC2=O)c(C)c1/N=N/c1ccc(CCNCC(O)c2ccc(O)c3c2OCC(=O)N3)cc1` (centres unmarked) [Compound 8] here?
The t1/2 was 18.6 days.

What about the “PSS (E → Z)” value [2] of the same compound?
Its value is 95%.

And the “PSS (Z → E)” value [2]?
Its value is 94%.

What about the “λmax (E)” value [3] of the same compound?
The value was 337 nm.

What about the “λmax (Z)” value [3] of the same compound?
The value was 435 nm.

What about the EC50 [4, 5] of the same compound?
The EC50 was 53 ± 2.6 nM.

What about the Emax [4, 6] of the same compound?
Its Emax is 84 ± 5%.

What about the Emax [4, 7] of the same compound?
The Emax was 90 ± 2%.

And the EC50 [4, 8]?
The EC50 was 75 ± 2.3 nM.

Which t1/2 [1] does the source give for `Cc1nn(CCCSSCCN)c(C)c1/N=N/c1ccc(CCNCC(O)c2ccc(O)c3c2OCC(=O)N3)cc1` (centres unmarked) [Compound 4] here?
The t1/2 was 15.7 days.

What about the “PSS (E → Z)” value [2] of the same compound?
Its value is 96%.

And the “PSS (Z → E)” value [2]?
The value was 92%.

And the “λmax (E)” value [3]?
The value was 339 nm.

And the “λmax (Z)” value [3]?
Its value is 436 nm.

And the EC50 [4, 5]?
The EC50 was 39 ± 7 nM.

And the Emax [4, 6]?
Its Emax is 88 ± 3%.

What about the Emax [4, 7] of the same compound?
Its Emax is 87 ± 5%.

What about the EC50 [4, 8] of the same compound?
The EC50 was 9.8 ± 0.9 nM.

Which t1/2 [1] does the source give for `Cc1nn(CCCCSSCCN)c(C)c1/N=N/c1ccc(CCNCC(O)c2ccc(O)c3c2OCC(=O)N3)cc1` (centres unmarked) [Compound 5] here?
Its t1/2 is 16.7 days.

And the “PSS (E → Z)” value [2]?
The value was 94%.

And the “PSS (Z → E)” value [2]?
The value was 92%.

And the “λmax (E)” value [3]?
The value was 338 nm.

What about the “λmax (Z)” value [3] of the same compound?
Its value is 436 nm.

And the EC50 [4, 5]?
The EC50 was 79 ± 25 nM.

And the Emax [4, 6]?
Its Emax is 98 ± 1%.

And the Emax [4, 7]?
Its Emax is 93 ± 4%.

What about the EC50 [4, 8] of the same compound?
Its EC50 is 9.9 ± 1.7 nM.

Which t1/2 [1] does the source give for `Cc1nn(CCCSSCCN(C)C)c(C)c1/N=N/c1ccc(CCNC[C@H](O)c2ccc(O)c(O)c2)cc1` [Compound 2] here?
Its t1/2 is 4.9 days.

And the “PSS (E → Z)” value [2]?
Its value is 89%.

And the “PSS (Z → E)” value [2]?
Its value is 87%.

What about the “λmax (E)” value [3] of the same compound?
Its value is 335 nm.

And the “λmax (Z)” value [3]?
Its value is 433 nm.

What about the EC50 [4, 5] of the same compound?
Its EC50 is 940 ± 34 nM.

What about the Emax [4, 6] of the same compound?
The Emax was 96 ± 2%.

And the Emax [4, 7]?
The Emax was 97 ± 1%.

What about the EC50 [4, 8] of the same compound?
The EC50 was 700 ± 35 nM.

Which results are given for `Cc1nn(CCCCCSSCCN)c(C)c1/N=N/c1ccc(CCNCC(O)c2ccc(O)c3c2OCC(=O)N3)cc1` (centres unmarked) [Compound 6]?
t1/2 [1]: 13.3 days; PSS (E → Z) [2]: 95%; PSS (Z → E) [2]: 93%; λmax (E) [3]: 340 nm; λmax (Z) [3]: 435 nm; EC50 [4, 5]: 38 ± 5.8 nM; Emax [4, 6]: 70 ± 2%; Emax [4, 7]: 89 ± 1%; EC50 [4, 8]: 21 ± 1.3 nM

For `Cc1nn(CCSSCCN)c(C)c1/N=N/c1ccc(CCNCC(O)c2ccc(O)c3c2OCC(=O)N3)cc1` (centres unmarked) [Compound E-3], which EC50 [4, 5] is on record?
Its EC50 is 7.2 nM.

For `Cc1nn(CCCCCSSCCN)c(C)c1/N=N/c1ccc(CCNCC(O)c2ccc(O)c3c2OCC(=O)N3)cc1` (racemic) [Compound E-6], which Emax ([4]; E-isomer, β2AR wild type, relative to maximum effect of norepinephrine) is on record?
The Emax was 70%.

Which t1/2 [1] does the source give for `Cc1nn(CCCN2C(=O)C=CC2=O)c(C)c1/N=N/c1ccc(CCNCC(O)c2ccc(O)c3c2OCC(=O)N3)cc1` (centres unmarked) [Compound 9] here?
The t1/2 was 20.4 days.

What about the “PSS (E → Z)” value [2] of the same compound?
Its value is 95%.

What about the “PSS (Z → E)” value [2] of the same compound?
Its value is 93%.

What about the “λmax (E)” value [3] of the same compound?
The value was 339 nm.

What about the “λmax (Z)” value [3] of the same compound?
The value was 435 nm.

And the EC50 [4, 5]?
Its EC50 is 72 ± 12 nM.

And the Emax [4, 6]?
The Emax was 88 ± 5%.

And the Emax [4, 7]?
The Emax was 85 ± 5%.

What about the EC50 [4, 8] of the same compound?
The EC50 was 57 ± 8.5 nM.

Which results are given for `Cc1nn(CCSSCCN(C)C)c(C)c1/N=N/c1ccc(CCNC[C@H](O)c2ccc(O)c(O)c2)cc1` [Compound 1, (R,E)-4-(2-((4-((1-(2-((2-(Dimethylamino)ethyl)disulfaneyl)ethyl)-3,5-dimethyl-1H-pyrazol-4-yl)diazenyl)phenethyl)amino)-1-hydroxyethyl)benzene-1,2-diol]?
t1/2 [1]: 3.9 days; PSS (E → Z) [2]: 89%; PSS (Z → E) [2]: 90%; λmax (E) [3]: 335 nm; λmax (Z) [3]: 435 nm; EC50 [4, 5]: 630 ± 72 nM; Emax [4, 6]: 108 ± 3%; Emax [4, 7]: 78 ± 1%; EC50 [4, 8]: 480 ± 110 nM

With `Cc1nn(CCSSCCN(C)C)c(C)c1/N=N\c1ccc(CCNC[C@H](O)c2ccc(O)c(O)c2)cc1` [Compound Z-1] as the compound, how does the EC50 ([4]; Z-isomer, β2AR wild type) read?
The EC50 was 480 nM.

For `Cc1nn(CCN2C(=O)C=CC2=O)c(C)c1/N=N\c1ccc(CCNC[C@H](O)c2ccc(O)c(O)c2)cc1` [Compound Z-7], which EC50 ([4]; Z-isomer, β2AR wild type) is on record?
The EC50 was 4300 nM.

For `Cc1nn(CCCCCSSCCN)c(C)c1/N=N\c1ccc(CCNCC(O)c2ccc(O)c3c2OCC(=O)N3)cc1` (racemic) [Compound Z-6], which Emax ([4]; Z-isomer, β2AR wild type, relative to maximum effect of norepinephrine) is on record?
Its Emax is 85%.

For `Cc1nn(CCCCSSCCN)c(C)c1/N=N/c1ccc(CCNCC(O)c2ccc(O)c3c2OCC(=O)N3)cc1` (racemic) [Compound E-5], which EC50 [4, 5] is on record?
Its EC50 is 79 nM.

With `Cc1nn(CCN2C(=O)C=CC2=O)c(C)c1/N=N/c1ccc(CCNC[C@H](O)c2ccc(O)c(O)c2)cc1` [Compound 7] as the compound, how does the t1/2 [1] read?
The t1/2 was 4.5 days.

And the “PSS (E → Z)” value [2]?
The value was 92%.

And the “PSS (Z → E)” value [2]?
The value was 85%.

And the “λmax (E)” value [3]?
The value was 335 nm.

What about the “λmax (Z)” value [3] of the same compound?
The value was 433 nm.

And the EC50 [4, 5]?
Its EC50 is 1500 nM.

What about the Emax [4, 6] of the same compound?
The Emax was 103 ± 4%.

And the Emax [4, 7]?
The Emax was 101 ± 10%.

And the EC50 [4, 8]?
The EC50 was 4300 nM.
